Structures are written as SMILES. Calls of active or inactive are those of the source.

Data set [1] relates to Mus musculus. Kind of data set: Antiinflammatory activity in carrageenan-induced thrombosis in male BALB/c mouse model assessed as reduction in IL-6 level administered as oral dose by ELISA method. The class given is functional, organism-based. Conditions: dose 10-30 mg/kg.
In data set [2] the test system is Mus musculus. Kind of data set: Antithrombotic activity in carrageenan induced thrombosis in male BALB/c mouse model assessed as inhibition of tail thrombosis at 20 to 30 mg/kg, IG preadministered with PBS for 7 days followed by carrageenan stimulation on day 7 and measured after 2 days post compound administration by H and E staining based analysis. The class given is functional, organism-based. The following applies: dose 20-30 mg/kg, time 2.0 day.

In the next data set the target is T1, Coagulation factor XII (Homo sapiens, UniProt P00748).
T1 sequence (P00748 whole entry): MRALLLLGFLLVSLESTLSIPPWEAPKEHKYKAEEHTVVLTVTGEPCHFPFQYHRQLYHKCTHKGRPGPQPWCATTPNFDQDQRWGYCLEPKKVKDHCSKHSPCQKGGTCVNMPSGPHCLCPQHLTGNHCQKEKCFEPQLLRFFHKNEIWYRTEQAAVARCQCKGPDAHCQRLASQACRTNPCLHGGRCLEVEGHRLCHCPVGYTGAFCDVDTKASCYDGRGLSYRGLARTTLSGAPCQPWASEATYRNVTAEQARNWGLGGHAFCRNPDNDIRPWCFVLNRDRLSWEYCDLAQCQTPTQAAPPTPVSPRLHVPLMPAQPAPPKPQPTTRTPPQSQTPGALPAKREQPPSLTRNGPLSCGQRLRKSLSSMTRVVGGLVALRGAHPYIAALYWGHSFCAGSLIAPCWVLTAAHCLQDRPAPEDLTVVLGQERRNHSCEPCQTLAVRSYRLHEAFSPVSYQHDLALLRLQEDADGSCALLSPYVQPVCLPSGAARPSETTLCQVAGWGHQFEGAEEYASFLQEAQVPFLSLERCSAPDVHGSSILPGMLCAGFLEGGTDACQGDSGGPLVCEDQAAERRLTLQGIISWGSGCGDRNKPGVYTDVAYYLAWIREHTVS
Kind of data set: Inhibition of FXIIa (unknown origin) using H-D-Pro-Phe-Arg-pNA as substrate incubated for 20 mins followed by substrate addition by spectrophotometric analysis.

Data set [3] has as its system Plasma. Briefly: Anticoagulant activity in non-activated human plasma assessed as prolongation of activated partial thromboplastin time measured after 260 mins. The format is functional. The following applies: 4.333 h.
The next data set concerns Smooth muscle cell. Kind of data set: Ant-icalcification activity in human aortic Smooth muscle cell at 10 uM measured after 14 days with replacement of fresh medium for every 2 to 3 days by Alizarin red S staining based analysis. The class given is functional. Conditions: time 14.0 day.
The test system of data set [4] is Mus musculus. Kind of data set: Antiinflammatory activity in carrageenan-induced thrombosis in male BALB/c mouse model assessed as reduction in IL-1 beta level administered as oral dose by ELISA method. The class given is functional, organism-based. The following applies: dose 10-30 mg/kg. In general terms: In an ELISA, binding on a coated surface is turned into a signal by an enzyme label.

The subject of data set [5] is Plasma. Kind of data set: Anticoagulant activity in non-activated human plasma at 10 to 25 uM measured after 260 mins. The format is functional, cell-free. Conditions: dose 10-25 µM.
The nature of data set [6]: MRT(0 to infinity) in BALB/c mouse at 5 mg/kg, po measured upto 24 hrs by LC-MS/MS analysis. Conditions: in vivo. The format is ADME, organism-based.
Data set [7] can be described thus: Half life in BALB/c mouse at 1 mg/kg, iv measured upto 24 hrs by LC-MS/MS analysis. The class given is ADME, organism-based. Conditions: in vivo.
Data set [8] in a line: Toxicity in BALB/c mouse assessed as effect on spleen at 60 to 100 mg/kg, po measured after 14 days by H and E staining based analysis. The class given is organism-based. Conditions: in vivo, 336 h, dose 60-100 mg/kg, time 14 day.
A short description of data set [9]: AUC (0 to infinity) in BALB/c mouse at 1 mg/kg, iv measured upto 24 hrs by LC-MS/MS analysis. Conditions: in vivo. The format is ADME, organism-based.
Data set [10] is described as follows: Toxicity in BALB/c mouse assessed as effect on UREA level in serum at 60 to 100 mg/kg, po measured after 14 days. The class given is organism-based. The following applies: in vivo, 336 h, dose 60-100 mg/kg, time 14 day.
Data set [11] is described as follows: AUC (0 to infinity) in BALB/c mouse at 5 mg/kg, po measured upto 24 hrs by LC-MS/MS analysis. The class given is ADME, organism-based. Conditions: in vivo.
The nature of data set [12]: Toxicity in BALB/c mouse assessed as effect on LDH level in serum at 60 to 100 mg/kg, po measured after 14 days. The class given is organism-based. The following applies: in vivo, 336 h, dose 60-100 mg/kg, time 14 day.
The target of data set [13] is T2, Coagulation factor XII (Homo sapiens) (UniProt P00748).
T2 sequence (whole entry): T1 sequence (P00748 whole entry)
Kind of data set: Binding affinity to FXIIa (unknown origin) assessed as Kinact/Ki using H-D-Pro-Phe-Arg-pNA.2HCl as substrate by spectrophotometric analysis.

Data set [14] is described as follows: Toxicity in BALB/c mouse assessed as effect on ALP level in serum at 60 to 100 mg/kg, po measured after 14 days. Conditions: in vivo, 336 h, dose 60-100 mg/kg, time 14 day. The format is organism-based.
For data set [15], the system named is Mus musculus. Briefly: Antiinflammatory activity in carrageenan-induced thrombosis in male BALB/c mouse model assessed as reduction in IL-6 level at 10 to 30 mg/kg, po by ELISA method. The format is functional, organism-based. Conditions: dose 10-30 mg/kg.
Data set [16] in a line: Toxicity in BALB/c mouse assessed as effect on HBDH level in serum at 60 to 100 mg/kg, po measured after 14 days. The class given is organism-based. The following applies: in vivo, 336 h, dose 60-100 mg/kg, time 14 day.
Data set [17] has as its system Mus musculus. Briefly: Antiinflammatory activity in carrageenan-induced thrombosis in male BALB/c mouse model assessed as reduction in IL-1 beta level at 10 to 30 mg/kg, po by ELISA method. The class given is functional, organism-based. Conditions: dose 10-30 mg/kg.
A short description of data set [18]: Half life in BALB/c mouse at 5 mg/kg, po measured upto 24 hrs by LC-MS/MS analysis. The format is ADME, organism-based. Conditions: in vivo.
A short description of data set [19]: MRT (0 to infinity) in BALB/c mouse at 1 mg/kg, iv measured upto 24 hrs by LC-MS/MS analysis. The format is ADME, organism-based. Conditions: in vivo.
Data set [20] in a line: Tmax in BALB/c mouse at 1 mg/kg, iv measured upto 24 hrs by LC-MS/MS analysis. The format is ADME, organism-based. The following applies: in vivo.
Data set [21] concerns the target T2, Coagulation factor XII (Homo sapiens). Kind of data set: Inhibition of FXIIa (unknown origin) using H-D-Pro-Phe-Arg-pNA as substrate preincubated for 20 mins followed by 100 fold dilution upto 120 mins then substrate addition for 60 mins by jump dilution assay. Conditions: time <= 200.0 min.
A short description of data set [22]: Toxicity in BALB/c mouse assessed as effect on liver at 60 to 100 mg/kg, po measured after 14 days by H and E staining based analysis. The class given is organism-based. Conditions: in vivo, 336 h, dose 60-100 mg/kg, time 14 day.
Data set [23] in a line: Toxicity in BALB/c mouse assessed as effect on heart at 60 to 100 mg/kg, po measured after 14 days by H and E staining based analysis. The class given is organism-based. The following applies: in vivo, 336 h, dose 60-100 mg/kg, time 14 day.
A short description of data set [24]: Toxicity in BALB/c mouse assessed as effect on lung at 60 to 100 mg/kg, po measured after 14 days by H and E staining based analysis. The class given is organism-based. Conditions: in vivo, 336 h, dose 60-100 mg/kg, time 14 day.
Data set [25] is described as follows: Tmax in BALB/c mouse at 5 mg/kg, po measured upto 24 hrs by LC-MS/MS analysis. The class given is ADME, organism-based. Conditions: in vivo.
Data set [26] can be described thus: Toxicity in BALB/c mouse assessed as effect on kidney at 60 to 100 mg/kg, po measured after 14 days by H and E staining based analysis. The format is organism-based. The following applies: in vivo, 336 h, dose 60-100 mg/kg, time 14 day.
For data set [27], the target named is T2, Coagulation factor XII (Homo sapiens). Kind of data set: Binding affinity to FXIIa (unknown origin) assessed as inactivation rate using H-D-Pro-Phe-Arg-pNA.2HCl as substrate by spectrophotometric analysis.
Data set [28] is described as follows: Toxicity in BALB/c mouse assessed as effect on CREA level in serum at 60 to 100 mg/kg, po measured after 14 days. The class given is organism-based. Conditions: in vivo, 336 h, dose 60-100 mg/kg, time 14 day.

As a reminder, the IC50 is the point on the concentration scale where inhibition reaches its midpoint. Turning to `CC(C)N1CCN(c2ccc(C(=O)n3nc(-c4ccccn4)nc3N)c3ccccc23)CC1`, the Activity result with Mus musculus [1] and with Mus musculus [4] was “Dose-Dependent Effect” throughout. The outcome in the data set with Mus musculus [2], in the data set with Smooth muscle cell and with Plasma [5] was Active. The compound also had an IC50 on Coagulation factor XII of 37 nM. In addition, the EC1.5 in the data set with Plasma [3] came out at 14 µM.

In general, MRT inf refers to a mean duration of stay, worked out from the concentration-time curve. As usually defined, the half-life is the time needed for the level to fall by half in the phase considered. One may read the AUC(0-inf) as total exposure, with the tail of the curve extrapolated. A higher AUC(0-inf) goes with high exposure. By Tmax is commonly meant the time at which the peak concentration occurs. For `CC(C)N1CCCN(c2ccc(C(=O)n3nc(-c4ccccn4)nc3N)c3ccccc23)CC1`, the mean residence time (MRT inf) in data set [6] was determined as 1.6 h; in data set [19] it was 1.58 h. Further, the figures for the half-life in data set [7] and in data set [18] were 0.75 h and 1.71 h, respectively. Further, the result in the data set on Mus musculus [2], in the data set on Mus musculus [15], in the data set with Mus musculus [17] and in the data set on Plasma [5] was Active. Further, the Activity result in data set [8], in data set [10], in [12], in [14], in data set [16] and in data set [22] was “Non-Toxic” in each case. In addition, the Activity entry in data set [23], in data set [24], in data set [26] and in data set [28] was “Non-Toxic” in each case. The AUC(0-inf) was 13.3 ng·h/mL in data set [9] and 17.8 ng·h/mL in data set [11]. In data set [13], the K is 2.37 10^6/M/min. Further, the EC1.5 with Plasma [3] was 9 µM. The time of peak concentration (Tmax) amounted to 0.39 h in data set [20] and 1 h in data set [25]. For the same compound, in [21], the inhibition entry was “inactive”. Further, the Kinact in [27] was 0.027 min⁻¹.

These data come from ChEMBL document CHEMBL5500412, “Discovery of Highly Selective, Potent, Covalent, and Orally Bioavailable Factor XIIa Inhibitors for the Treatment of Thrombo-Inflammation” (J Med Chem, 2024).
